Measurements taken from patent US20250082651A1, “GANAXOLONE FOR USE IN TREATING GENETIC EPILEPTIC DISORDERS” (Marinus Pharmaceuticals, Inc., priority 2017, published 2025).

Tests used:
[1] = tested on: dogs; experiment: 1-year (chronic oral) dog toxicity study; type: in vivo
Text: There was a physiologically normal shortening of the PR and QT interval in response to the higher heart rate. There was no effect on QRS duration or QTc interval.
In the oral dosing programme, a therapeutic index from non-human NOAEL levels to the adult partial-onset seizure epilepsy and the pharmacokinetics study is approximately 2 to 3-fold in dogs (sedation).

[2] = Integrated adverse events from placebo controlled studies of ganaxolone; type: in vivo, human; settings: Ganaxolone n = 750, placebo controlled studies
Text: As noted in Table 6, across multiple placebo controlled studies of ganaxolone across multiple indications including epilepsy, few side effects are reported that occur at a rate higher than those reported in placebo-treated subjects. These side effects are generally mild and have always been reversible. […] Four of the 7 children enrolled into this study remain on ganaxolone. Adverse events in this study are similar to those reported for all placebo controlled studies completed to date as summarized in Table 6 below.

[3] = target: human ether-a-go-go related gene (hERG) receptor (Homo sapiens, UniProt Q12809); experiment: hERG safety pharmacology; type: binding; settings: measured concentration of 70 nM (n=2)
Method: Safety pharmacology studies were conducted with ganaxalone.

[4] = tested on: rats or mice; experiment: Reproductive/developmental toxicity and mutagenicity; type: in vivo
[5] = Solubility of ganaxolone in solvents; type: physicochemical
Method: Ganaxolone is insoluble in water. Its solubilities in 95% alcohol, propylene glycol and polyethylene glycol are 13 mg/mL, 3.5 mg/mL and 3.1 mg/mL, respectively.
The pregnenolone neurosteroid (e.g., ganaxolone) formulations suitable for use in the present invention may also be administered parenterally. In such embodiments, the formulations are suitable for intramuscular, subcutaneous, or intravenous injection may comprise physiologically acceptable sterile aqueous or non-aqueous solutions, dispersions, suspensions or emulsions, and sterile powders for reconstitution into sterile injectable solutions or dispersions. Examples of suitable aqueous and non-aqueous carriers, diluents, solvents, or vehicles including water, ethanol, polyols (propylene glycol, polyethylene-glycol, glycerol, cremophor and the like), suitable mixtures thereof, vegetable oils (such as olive oil) and injectable organic esters such as ethyl oleate. Additionally, Ganaxolone can be dissolved at concentrations of >1 mg/ml using water soluble beta cyclodextrins (e.g. beta-sulfobutyl-cyclodextrin and 2-hydroxypropylbetacyclodextrin). A particularly suitable cyclodextrin is a substituted-β-cyclodextrin is CAPTISOL® (cyckodextrin). […]

[6] = tested on: rats; experiment: Intravenous ganaxolone in rats: EEG and status epilepticus models; type: in vivo, rat

Sequence of human ether-a-go-go related gene (hERG) receptor (Q12809 whole entry): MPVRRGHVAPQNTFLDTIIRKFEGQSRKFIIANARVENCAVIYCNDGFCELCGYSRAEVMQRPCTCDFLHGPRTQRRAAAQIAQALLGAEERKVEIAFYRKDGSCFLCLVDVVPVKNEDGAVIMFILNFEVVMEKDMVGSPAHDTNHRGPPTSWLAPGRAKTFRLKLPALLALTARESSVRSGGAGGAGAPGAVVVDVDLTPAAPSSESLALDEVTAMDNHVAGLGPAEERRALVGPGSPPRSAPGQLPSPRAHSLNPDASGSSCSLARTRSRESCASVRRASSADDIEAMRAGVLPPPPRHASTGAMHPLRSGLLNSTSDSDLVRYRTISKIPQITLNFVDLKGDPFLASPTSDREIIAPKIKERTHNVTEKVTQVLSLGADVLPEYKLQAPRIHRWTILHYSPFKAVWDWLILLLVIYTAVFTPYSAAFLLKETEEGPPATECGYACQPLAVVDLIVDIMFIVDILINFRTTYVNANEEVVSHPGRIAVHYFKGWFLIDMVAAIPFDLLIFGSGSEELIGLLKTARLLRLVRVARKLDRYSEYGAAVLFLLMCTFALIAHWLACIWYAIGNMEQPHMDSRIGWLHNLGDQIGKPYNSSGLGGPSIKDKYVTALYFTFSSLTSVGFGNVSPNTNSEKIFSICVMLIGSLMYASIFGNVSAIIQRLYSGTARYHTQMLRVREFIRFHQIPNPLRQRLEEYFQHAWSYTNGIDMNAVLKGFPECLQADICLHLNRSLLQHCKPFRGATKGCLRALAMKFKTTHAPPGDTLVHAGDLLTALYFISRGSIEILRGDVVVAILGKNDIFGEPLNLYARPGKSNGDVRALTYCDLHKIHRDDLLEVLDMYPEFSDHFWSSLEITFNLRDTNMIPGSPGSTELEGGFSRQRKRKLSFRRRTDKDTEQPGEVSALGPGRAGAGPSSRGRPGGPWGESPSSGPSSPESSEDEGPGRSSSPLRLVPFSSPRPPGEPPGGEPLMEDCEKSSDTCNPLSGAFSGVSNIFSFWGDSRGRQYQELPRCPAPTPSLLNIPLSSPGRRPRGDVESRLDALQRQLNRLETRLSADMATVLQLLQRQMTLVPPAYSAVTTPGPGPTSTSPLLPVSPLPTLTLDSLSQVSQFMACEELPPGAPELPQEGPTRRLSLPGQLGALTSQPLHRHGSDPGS

CC(=O)[C@H]1CC[C@H]2[C@@H]3CC[C@H]4C[C@](C)(O)CC[C@]4(C)[C@H]3CC[C@]12C [Ganaxolone, 3α-hydroxy-3β-methyl-5α-pregnan-20-one]
Effect on QRS duration or QTc ([1]; 1-year dog study): no treatment effect | ECG finding ([1]; 1-year dog study, after 3 months of dosing, 4 animals, >190 bpm): transient sinus tachycardia | Cmax ([1]; 1-year dog toxicity study): > 1500 ng/mL | Findings at mean Cmax greater than 1500 ng/mL ([1]; chronic oral toxicity study in dogs, 10 and 15 mg/kg/day): increased weight and total plasma cholesterol levels | Therapeutic index from non-human NOAEL levels ([1]; oral dosing programme, dogs (sedation)): 2 to 3 fold | Adverse event: Dizziness [2]: 95 (13%) n (%) | Adverse event: Fatigue [2]: 51 (7%) n (%) | Adverse event: Headache [2]: 37 (5%) n (%) | Adverse event: Somnolence [2]: 134 (18%) n (%) | Interaction with hERG receptor [3]: did not interact | Mutagenicity ([4]; in vivo): No potential for mutagenicity | Effects on fertility and early embryonic development ([4]; rats): no effects | Teratogenicity ([4]; rats or mice): not teratogenic | Dissolved concentration ([5]; using water soluble beta cyclodextrins): > 1 mg/mL | Solubility in water ([5]; water): insoluble | Sedative / anaesthetic response [6]: did not cause a full anaesthetic response | EEG effect ([6]; otherwise normal rats): induce burst suppression-like electroencephalogram (EEG) patterns
